{"source": "patent US20080125427A1", "about": "“Novel Inhibitors of Rho-Kinases” (SMITHKLINE BEECHAM CORPORATION, priority 2004, published 2008)", "target": "T1, human recombinant ROCK1 kinase domain (amino acid 2-543) (Homo sapiens, UniProt Q13464)", "T1 construct": "human recombinant ROCK1 kinase domain (amino acid 2-543); His-tag; made in house; host or cells: Sf9 insect cells", "T1 sequence (Q13464 2-543)": "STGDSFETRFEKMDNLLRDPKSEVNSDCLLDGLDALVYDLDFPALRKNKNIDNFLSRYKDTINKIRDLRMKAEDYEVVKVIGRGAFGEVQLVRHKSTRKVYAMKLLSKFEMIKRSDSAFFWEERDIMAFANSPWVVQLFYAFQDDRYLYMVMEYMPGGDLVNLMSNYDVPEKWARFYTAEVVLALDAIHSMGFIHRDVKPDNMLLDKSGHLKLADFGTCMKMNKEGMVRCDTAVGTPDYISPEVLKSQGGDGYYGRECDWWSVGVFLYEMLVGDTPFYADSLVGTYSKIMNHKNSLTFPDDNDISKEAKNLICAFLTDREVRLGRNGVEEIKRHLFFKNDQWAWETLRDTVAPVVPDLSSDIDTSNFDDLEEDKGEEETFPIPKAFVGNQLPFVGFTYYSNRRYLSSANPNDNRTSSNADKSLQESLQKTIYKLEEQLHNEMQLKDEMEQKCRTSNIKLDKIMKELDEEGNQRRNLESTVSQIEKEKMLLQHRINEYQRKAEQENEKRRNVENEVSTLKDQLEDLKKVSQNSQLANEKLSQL", "experiment": "ROCK Kinase Assay (SPA, P33 incorporation into peptide substrate)", "format": "biochemical", "settings": "1 nM hROCK1, 1 uM ATP; eleven point dilution range, 50 uM to 0.8 nM or 10 uM to 0.8 nM (Example 98: 10 uM to 0.8 nM)", "experimental": "ROCK inhibitor activity was determined using human recombinant ROCK1 kinase domain (amino acid 2-543) expressed in Sf9 cells (see WO9967283). The enzyme was purified using His-tag NTA column and Source15 HPLC chromatography. The assay of Rock-1 activity involved incubation with peptide substrate and ATP^33, the subsequent incorporation of P^33 into the peptide was quantified by Scintillation Proximity Assay (SPA—Amersham Pharmacia).\nFor IC50 determination, test compounds were typically dissolved at 10 mM in 100% DMSO, with subsequent serial dilution in 100% DMSO. Compounds were typically assayed over an eleven point dilution range with a concentration in the assay of 50 uM to 0.8 nM, in 3-fold dilutions. IC50 values were calculated by bespoke curve fitting software and then converted to pIC50. In some cases, compounds were assayed over an eleven point dilution range with a concentration in the assay of 10 uM to 0.8 nM, in 3-fold dilutions. […]\nAssays were performed in opaque, white walled, 384 well plates, in a total assay volume of 20 ul. […] P^33 incorporation was quantified by scintillation counting in a Packard TopCount. When the reaction was terminated by addition of a 10 ul solution, P33 incorporation was quantified by luminescence detection using a Perkin-Elmer Viewlux ultraHTS microplate imager."}
{"smiles": "CC1=C(C(=O)Nc2cc3cn[nH]c3cc2F)C(c2ccc(Cl)cc2F)N=C(c2ccnc(Cl)c2)N1C", "note": "(stereo not shown) [Example 98, 4-(4-chloro-2-fluorophenyl)-2-(2-chloro-4-pyridinyl)-N-(6-fluoro-1H-indazol-5-yl)-1,6-dimethyl-1,4-dihydro-5-pyrimidinecarboxamide]", "values": [{"measurement": "activity in the ROCK kinase assay", "value": "not active"}]}
